# Laboratory results from a melting point compilation (Tetko et al.; mined from patent text by program, amines drawn as free bases though some values may be those of a salt).
row,melting point,SMILES
1,80 to 83 °C,CC[C@@]12C[C@H](O)[C@](O)(c3c(F)cccc3F)C[C@H]1CCc1cc(OCc3cccnc3C)ccc12
2,75 to 76 °C,Cc1nc(-c2cccc(CNc3ccccc3)c2)no1
3,116 °C,COc1ccc(CC(=O)NCc2ccccc2-c2ccccc2C(=O)NCCc2cccnc2)cc1
4,173 to 174 °C,CCn1cc(-c2c(-c3ccccc3F)nn3ccncc23)ccc1=O
5,120 to 122 °C,CC(C)c1cccc(C(C)C)c1NC(=O)NCCN1CCN(CCSc2nc3ccccc3[nH]2)CC1
6,272 to 273 °C,O=C(Nc1nnn[nH]1)c1ccccc1[N+](=O)[O-]
7,99 to 101 °C,O=C(SCCC(=O)N1c2ccccc2CCC1C(=O)O)c1ccccc1 (centres undefined)
8,218 to 222 °C,NC(=O)Cc1ccccc1CSc1nc2ccccc2[nH]1
9,128 °C,O=C(CCl)NC(c1ccc(F)cc1)c1ccc(F)cc1
10,255 °C,c1ccc(-c2cc3nnc(-c4cnccn4)n3nc2OCc2nc[nH]n2)cc1
11,217 to 219 °C,COC(=O)C1=C(C)NC(=O)N(C)C1c1cccc([N+](=O)[O-])c1 (centres undefined)
12,106 to 108 °C,O=c1oc(-c2cccc(S(=O)C(F)(F)F)c2)nc2ccccc12 (centres undefined)
13,205 to 207 °C,CN1C(=O)CC[C@]2(C)c3ccc(-c4cccc5cccnc45)cc3CC[C@@H]12
14,165 to 167 °C,Cc1cccc(C2=C(c3ccc(S(C)(=O)=O)cc3)CC(CN(C)C)C2O)c1 (centres undefined)
15,93.3 to 96.2 °C,CC(C)(C)c1ccc(C=NOCc2ccc(CC(=O)O)cc2)cc1
16,57 to 59 °C,CC(=NNC(=N)N)c1cccc(OCc2ccc3ccccc3n2)c1
17,148 to 149 °C,Cc1cn(Cc2cccc(Cl)c2)cc1C(=O)CC(=O)C(=O)O
18,175 to 176 °C,NCCOc1ccc(CC2SC(=O)NC2=O)cc1 (centres undefined)
19,201 to 205 °C,N#Cc1cnc2cc3c(cc2c1Nc1cccc(Br)c1)OCO3

row,melting point,SMILES
1,144 °C,Clc1ncnc(Cl)c1-c1ccc(-c2ccccc2)cc1
2,111 to 113 °C,COC(=O)c1ccc(OCC2CC(=O)N(c3ccc(OS(C)(=O)=O)cc3)C2)cc1 (centres undefined)
3,121 to 122 °C,CCCc1c(OCc2ccccc2)ccc2c(=O)cc(C(=O)OCC)[nH]c12
4,212 to 214 °C,CC1CC(=O)NN=C1c1ccc(NC(=NC#N)NCc2ccccn2)cc1 (centres undefined)
5,183 to 184 °C,O=C(O)c1ccc(CO)c2ccccc12
6,212 to 213 °C,CC(C)n1nc(-c2cc(-c3ccn[nH]3)cnc2-c2ccccc2)ccc1=O
7,100 to 101 °C,O=S(=O)(CCCCl)Nc1ccccc1OCc1ccc2ccccc2n1
8,95.5 to 97.5 °C,Cc1nc2cnc3ccccc3c2s1
9,146 to 148 °C,CCSc1nc2cccc(C(=O)O)c2n1Cc1ccc(-c2ccccc2-c2nc(=O)o[nH]2)cc1
10,202 to 204 °C,CC(C)(C)CC(=O)N1C[C@@H](c2c[nH]c3ccccc23)[C@H](c2cn3c4c(cccc24)CCC3)C1
11,133 to 134 °C,O=C(N[C@@H]1CCCC[C@H]1O)c1cnc(OCC(F)(F)F)c(-c2ccc(F)cc2)n1
12,145 to 148 °C,CCc1nc2ccccc2c(N)c1C(C)=O
13,201 to 202 °C,CN1C(=O)C2(COc3cc4c(cc32)OCCO4)c2c(-c3cc[nH]n3)cccc21 (centres undefined)
14,160 to 163 °C,OCCn1cc(-c2ccc3ncn(Cc4ccc5ncccc5c4)c3n2)cn1
15,165 °C,CN(C)CCCC(=O)N1CCOc2cc3ncc(C#N)c(Nc4ccc(F)c(Cl)c4)c3cc21
16,104 to 106 °C,"CC(O)(C(=O)O)c1cccc(OCc2ccc3ccccc3c2)c1 (single isomer, unassigned; (-))"
17,80 to 82 °C,O=C(Nc1ccc2[nH]ccc2c1)C(=O)N1CCC(Cc2ccc(F)cc2)CC1
18,200 to 201 °C,COc1ccc(C2=C(NC(=O)Nc3c(C)cccc3C(C)C)CN(C)c3ccc(Cl)cc32)cc1OC
19,255 to 257 °C,CCOc1ccc(C(=O)C2=C(O)C(=O)N(c3ccc(C)nn3)C2c2ccc(OC(F)(F)F)cc2)cc1 (centres undefined)

row,melting point,SMILES
1,220 to 223 °C,COc1cc(N)c(Cl)cc1C(=O)NCC1CCN(CCS(=O)(=O)Cc2ccccc2)CC1
2,204 to 205 °C,CS(=O)(=O)c1ccc(-n2cnc3ccc(-c4nnc(CCc5cccc(C(F)(F)F)c5)o4)cc32)cc1
3,115 to 116 °C,COc1cccc(-c2cc(=O)c3cc(OCCCCCN4CCC(O)CC4)ccc3o2)c1
4,125 to 127 °C,CC1C(=O)Nc2c(C(=O)c3ccccc3)cccc21 (centres undefined)
5,218 to 220 °C,O=c1[nH]nc(-c2sc3ccccc3c2Cl)o1
6,184 to 186 °C,Cc1oc(-c2ccccc2)nc1CCOc1ccc(C[C@H](NCc2ccc(F)cc2)C(=O)O)cc1
7,192 to 194 °C,CC(=O)c1cn(C)cc(-c2cccc(Br)c2)c1=O
8,112 to 114 °C,CC1(C)CC(=O)N(C(=O)Nc2ccccc2)CC(C)(C)N1O
9,166 to 168 °C,Cc1nn(C)c2cc(-c3ccc(F)cc3)nc(-c3ccc4c(c3)OCO4)c12
10,221 to 222 °C,Cc1ccc(CC2CCN(C(=O)C(=O)Nc3ccc4[nH]c(=O)sc4c3)CC2)cc1
11,140 °C,c1ccc(-c2ncc(-c3cnc(C4CCCNC4)[nH]3)cn2)cc1 (centres undefined)
12,130 to 133 °C,CCN(CC)CCOc1ccc(-c2oc3ccccc3c2C(=O)c2cc(C)c(OC)c(C)c2)cc1
13,169 to 171 °C,CCOC(=O)C1=C(COCc2cccnc2)NC(COCc2cccnc2)=C(C(=O)OCC)C1c1cccc([N+](=O)[O-])c1
14,107 to 108 °C,Cc1c(Br)c(O)c(Cc2ccc(C(C)C)cc2)c(C)c1N(Cc1ccccc1)C(=O)CC(C)(C)C
15,158 to 160 °C,CCOC(=O)c1ccc2nc(-c3ccc(C)cc3)c(CN(C)C(=O)CC(C)C)n2c1
16,100 to 102 °C,O=C1c2ccc(Cl)cc2OCc2cccnc21
17,280 °C,O=C(Nc1cccc(S(=O)(=O)N2CCCC2)c1)c1cnn2c(C(F)(F)F)cc(-c3ccc(Cl)c(Cl)c3)nc12
18,121 to 123 °C,CCOc1c2ccccc2nc2c1c(C)nn2-c1ccccn1
19,253 to 255 °C,CC1(C(=O)Nc2ccc(C3=NNC(=O)C4CC34)cc2)CC1 (centres undefined)

# The next lines start with the molecule.
row,SMILES,melting point
1,CN(Cc1ccc(Cl)cc1)S(=O)(=O)c1cn(S(=O)(=O)N(C)C)cn1,112 to 114 °C
2,OC(CCN1CCN(c2ccccc2)CC1)COc1ccccc1Cl (centres undefined),100 to 102 °C
3,CCOC(=O)c1c(Cn2cncn2)nc2cc(OC)c(OC)cc2c1-c1ccc(OC)c(OC)c1,176 to 177 °C
4,NS(=O)(=O)c1ccccc1C=CC(F)(F)F,153 to 154 °C
5,C=CCC(C)(C)C(O)C(c1cccc(Cl)c1)n1ccnc1 (centres undefined),95 °C
6,Cc1nc2ccc3c(c2o1)O[C@@H](CN[C@H]1CC[C@@H](c2c[nH]c4ccc(F)cc42)CC1)CO3,80 to 82 °C
7,CC(C)C(NC(=O)c1ccc(C(=O)NCc2ccc(N)cc2)cc1)C(=O)N1CCCC1C(=O)NC(C(=O)C(F)(F)F)C(C)C (mixture of isomers),90 to 92 °C
8,COC(CNC(=O)CN1C(=O)C(C)=C(C)C1=O)OC,99.4 to 99.9 °C
9,Cn1nc(CS(C)(=O)=O)nc1NCCCOc1ccc(CN2CCCCC2)cc1,131 to 134 °C
10,CC(C)C(C)(C)C(O)(COc1ccc(Cl)cc1)Cn1cncn1 (centres undefined),59 to 60 °C
11,CCOC(=O)C1=C(C)NC(c2cnc(Cl)s2)=NC1c1ccc(F)cc1Cl (centres undefined),159 to 162 °C
12,CN(CCNc1ccn2ncc(-c3cccs3)c2n1)C(=O)OC(C)(C)C,140 to 141 °C
13,CC(C)CC1(CC(=O)NO)CCN(CCc2ccccc2)C1=O (centres undefined),123 to 124 °C
14,Cc1cc(C)c(N2CCC2=O)cc1NS(=O)(=O)C(F)(F)F,137 to 139 °C
15,COC(=O)CC/C(C)=C/Cc1c(N=C=O)c2c(c(C)c1OC)COC2=O,95 to 101 °C
16,CCOC(=O)C1(C(=O)OCC)C(C(C)=O)C(=O)N1Cc1ccc(OC)cc1OC (centres undefined),84 to 85 °C
17,O=C(O)c1cnc2cc3c(cc2c1O)OCO3,> 290 °C
18,N#CC=Cc1cccc(Cl)c1F,90 to 92 °C
19,CCCOc1cnc(CN)cc1O,159 to 160 °C
20,COc1ccc2nc(-c3cccc(F)c3)cc(OP(=O)(O)O)c2c1OP(=O)(O)O,120 to 122 °C
21,CC12CCC(C(=O)O)=CC1=CCC1C2CCC2(C)C(C(=O)CCc3ccccc3)CCC12 (centres undefined),218 to 220 °C

row,SMILES,melting point
1,Cc1cccc(Br)c1C=O,48 to 49 °C
2,CC(C)Cc1ccc2c(c1O)C(=O)c1ccc(CC(C)C)c(O)c1C2=O,188 °C
3,C#CCNC(=O)Oc1cc(-n2c(=O)cc(C(F)(F)F)n(C)c2=O)c(F)cc1Cl,144 to 146 °C
4,CC(=O)SCC(C(=O)O)C(F)(F)F (centres undefined),28 to 30 °C
5,CC12CC(=O)C3C(CCC4CC(O)CCC43C)C1CCC2C#N (centres undefined),190 to 192 °C
6,O=C(O)c1cc2cc(C3CCCCC3)ccc2nn1,159 to 161 °C
7,CCN1CCC(O)(c2cccc(F)c2F)C1 (centres undefined),119 to 120 °C
8,COC(=O)[C@@H]1CCCN1C(=O)CCC(=O)c1ccccc1,66 to 70 °C
9,N#CC=Cc1ccc(Br)cc1,106 °C
10,CCCCCCc1cc2c(cc1/C=C/c1ccc(C(=O)O)s1)C(C)(C)CCC2(C)C,164 to 165 °C
11,CCCCCCCCCCCCCCCCCCN(C(=O)CCCCCCCCCCC)C1O[C@H](CO)[C@@H](O)[C@H](O)[C@H]1NC(=O)CCCCCCCCCCC (some centres undefined),86 °C
12,O=C1CCCN1Cc1ccc(F)cc1,37 to 38 °C
13,CN(C)c1cc(C(O)c2ccccc2)c([N+](=O)[O-])cc1[N+](=O)[O-] (centres undefined),147 to 150 °C
14,COc1nc(O)cc(CCl)n1,154 to 155 °C
15,CCOC(=O)c1c(C)nc2c(cnn2CC)c1Cl,54 to 56 °C
16,COC(=O)CCCCC(=O)c1ccc(F)cc1,41 to 43 °C
17,Nc1cc(Cl)c(Cl)cc1I,79.5 to 80.5 °C
18,CCOC(=O)Cn1c(C(=O)O)cc2cc(Cl)ccc21,198 to 200 °C
19,CO/N=C(\C)[C@H]1CC[C@H]2[C@@H]3CCC4=CC(=O)CC[C@]4(C)[C@H]3CC[C@]12C,180 to 182 °C
20,N=c1n(Cc2ccc(Cl)cc2)c2ccc(Cl)cc2n1Cc1ccc(Cl)cc1,175 to 177 °C
21,CCCCCCCCCCC/C=C\c1ccc(C=CC(=O)OC)cc1,60 to 62 °C
